{
  "source": "patent US5160526A",
  "about": "“Alkene stabilizers for 3-isothiazolone compounds” (priority 1991, dated 1992)",
  "key": {"[1]": {"details": "for 2-Methyl (%) / 5-Chloro (%): 2-propanol + 2% water, 55° C", "method": "A solution of 5-chloro-2methyl-3-isothiazolone (\"5-Chloro\") and 2-methyl-3-isothiazolone (\"2-Methyl\") (3.11 g) was prepared in 2-propanol (12.1 g). This solution was distributed in 6 vials. Water (2%) and varying amounts of norbornene were then added. These were then put in a 55° C. oven and analyzed periodically."}, "[2]": {"format": "physicochemical", "details": "for 2-Methyl (%) / 5-Chloro (%): 2-propanol, 55° C", "method": "Varying amounts of DHP were added and the vials put in a 55° C. oven. Active ingredient analysis was done periodically."}, "[3]": {"format": "physicochemical", "details": "DPG, 55° C", "method": "This solution was distributed into 6 vials (3 g each) and varying amounts of cyclohexene were added. The vials were then heated at 55° C. and analyzed periodically."}, "[4]": {"assay": "Stabilization of 5-Chloro and 2-Methyl mixture by norbornene in dipropylene glycol containing 0.5% water, 55° C oven", "format": "physicochemical", "details": "DPG (0.5% water)", "method": "To 19.9 g of dipropylene glycol was added 0.1 g of water. […] This solution was distributed into 6 vials and varying amounts of norbornene were added."}, "[5]": {"assay": "Stabilization of 5-Chloro and 2-Methyl mixture by norbornene in 2-propanol, 55° C oven", "format": "physicochemical", "details": "2-propanol, 55° C", "text": "This solution was distributed into 6 vials and varying amounts of norbornene added."}},
  "note": "Like-named read-outs stand apart in the source and are kept apart here.",
  "data": [
    {"smiles": "C1=CC2CCC1C2", "note": "[norbornene]", "values": [
      {"measurement": "stability realized (in words)", "setting": "[1]", "result": "Some stability is realized"},
      {"measurement": "stabilization properties in presence of water (in words)", "setting": "[1]", "result": "overwhelms the stabilization properties"}
    ]},
    {"smiles": "C1=COCCC1", "note": "[DHP, 3,4-Dihydro-2H-pyran]", "values": [
      {"measurement": "stability imparted to isothiazolones (in words)", "setting": "[2]", "result": "imparts no stability"}
    ]},
    {"smiles": "Cn1sccc1=O", "note": "[2-methyl-3-isothiazolone]", "values": [
      {"measurement": "2-Methyl (%) / 5-Chloro (%)", "setting": "[3]; 0% cyclohexene, 0 days", "result": 5.0, "unit": "%"},
      {"measurement": "2-Methyl (%) / 5-Chloro (%)", "setting": "[3]; 0% cyclohexene, 13 days", "result": 0.49, "unit": "%"},
      {"measurement": "2-Methyl (%) / 5-Chloro (%)", "setting": "[3]; 3.2% cyclohexene, 0 days", "result": 4.7, "unit": "%"},
      {"measurement": "2-Methyl (%) / 5-Chloro (%)", "setting": "[3]; 3.2% cyclohexene, 13 days", "result": 0.35, "unit": "%"},
      {"measurement": "2-Methyl (%) / 5-Chloro (%)", "setting": "[3]; 6.8% cyclohexene, 0 days", "result": 4.6, "unit": "%"},
      {"measurement": "2-Methyl (%) / 5-Chloro (%)", "setting": "[3]; 6.8% cyclohexene, 13 days", "result": 0.23, "unit": "%"},
      {"measurement": "2-Methyl (%) / 5-Chloro (%)", "setting": "[3]; 9.1% cyclohexene, 0 days", "result": 4.5, "unit": "%"},
      {"measurement": "2-Methyl (%) / 5-Chloro (%)", "setting": "[3]; 9.1% cyclohexene, 13 days", "result": 0.95, "unit": "%"},
      {"measurement": "2-Methyl (%) / 5-Chloro (%)", "setting": "[3]; 9.1% cyclohexene, 30 days", "result": 0.66, "unit": "%"},
      {"measurement": "2-Methyl (%) / 5-Chloro (%)", "setting": "[3]; 11.8% cyclohexene, 0 days", "result": 4.4, "unit": "%"},
      {"measurement": "2-Methyl (%) / 5-Chloro (%)", "setting": "[3]; 11.8% cyclohexene, 13 days", "result": 0.59, "unit": "%"},
      {"measurement": "2-Methyl (%) / 5-Chloro (%)", "setting": "[3]; 11.8% cyclohexene, 30 days", "result": 0.62, "unit": "%"},
      {"measurement": "2-Methyl (%) / 5-Chloro (%)", "setting": "[3]; 16.7% cyclohexene, 0 days", "result": 4.3, "unit": "%"},
      {"measurement": "2-Methyl (%) / 5-Chloro (%)", "setting": "[3]; 16.7% cyclohexene, 13 days", "result": 2.6, "unit": "%"},
      {"measurement": "2-Methyl (%) / 5-Chloro (%)", "setting": "[3]; 16.7% cyclohexene, 30 days", "result": 0.46, "unit": "%"},
      {"measurement": "2-Methyl (%) / 5-Chloro (%)", "setting": "[4]; 0% norbornene, 0 days", "result": 4.5, "unit": "%"},
      {"measurement": "2-Methyl (%) / 5-Chloro (%)", "setting": "[4]; 0% norbornene, 14 days", "result": 0.6, "unit": "%"},
      {"measurement": "2-Methyl (%) / 5-Chloro (%)", "setting": "[4]; 1.6% norbornene, 0 days", "result": 4.4, "unit": "%"},
      {"measurement": "2-Methyl (%) / 5-Chloro (%)", "setting": "[4]; 1.6% norbornene, 14 days", "result": 0.18, "unit": "%"},
      {"measurement": "2-Methyl (%) / 5-Chloro (%)", "setting": "[4]; 3.2% norbornene, 0 days", "result": 4.3, "unit": "%"},
      {"measurement": "2-Methyl (%) / 5-Chloro (%)", "setting": "[4]; 3.2% norbornene, 14 days", "result": 3.3, "unit": "%"},
      {"measurement": "2-Methyl (%) / 5-Chloro (%)", "setting": "[4]; 3.2% norbornene, 30 days", "result": 0.6, "unit": "%"},
      {"measurement": "2-Methyl (%) / 5-Chloro (%)", "setting": "[4]; 6.5% norbornene, 0 days", "result": 4.2, "unit": "%"},
      {"measurement": "2-Methyl (%) / 5-Chloro (%)", "setting": "[4]; 6.5% norbornene, 14 days", "result": 3.7, "unit": "%"},
      {"measurement": "2-Methyl (%) / 5-Chloro (%)", "setting": "[4]; 6.5% norbornene, 30 days", "result": 2.7, "unit": "%"},
      {"measurement": "2-Methyl (%) / 5-Chloro (%)", "setting": "[4]; 9.0% norbornene, 0 days", "result": 4.1, "unit": "%"},
      {"measurement": "2-Methyl (%) / 5-Chloro (%)", "setting": "[4]; 9.0% norbornene, 14 days", "result": 3.7, "unit": "%"},
      {"measurement": "2-Methyl (%) / 5-Chloro (%)", "setting": "[4]; 9.0% norbornene, 30 days", "result": 3.3, "unit": "%"},
      {"measurement": "2-Methyl (%) / 5-Chloro (%)", "setting": "[4]; 14.3% norbornene, 0 days", "result": 4.4, "unit": "%"},
      {"measurement": "2-Methyl (%) / 5-Chloro (%)", "setting": "[4]; 14.3% norbornene, 14 days", "result": 3.6, "unit": "%"},
      {"measurement": "2-Methyl (%) / 5-Chloro (%)", "setting": "[4]; 14.3% norbornene, 30 days", "result": 3.3, "unit": "%"},
      {"measurement": "2-Methyl (%) / 5-Chloro (%)", "setting": "[2]; 0% DHP, 0 days", "result": 5.3, "unit": "%"},
      {"measurement": "2-Methyl (%) / 5-Chloro (%)", "setting": "[2]; 0% DHP, 12 days", "result": 0.4, "unit": "%"},
      {"measurement": "2-Methyl (%) / 5-Chloro (%)", "setting": "[2]; 3.5% DHP, 0 days", "result": 5.1, "unit": "%"},
      {"measurement": "2-Methyl (%) / 5-Chloro (%)", "setting": "[2]; 3.5% DHP, 12 days", "result": 0.7, "unit": "%"},
      {"measurement": "2-Methyl (%) / 5-Chloro (%)", "setting": "[2]; 6.3% DHP, 0 days", "result": 5.0, "unit": "%"},
      {"measurement": "2-Methyl (%) / 5-Chloro (%)", "setting": "[2]; 6.3% DHP, 12 days", "result": 0.6, "unit": "%"},
      {"measurement": "2-Methyl (%) / 5-Chloro (%)", "setting": "[2]; 11.8% DHP, 0 days", "result": 4.2, "unit": "%"},
      {"measurement": "2-Methyl (%) / 5-Chloro (%)", "setting": "[2]; 11.8% DHP, 12 days", "result": 0.7, "unit": "%"},
      {"measurement": "2-Methyl (%) / 5-Chloro (%)", "setting": "[2]; 16.7% DHP, 0 days", "result": 4.4, "unit": "%"},
      {"measurement": "2-Methyl (%) / 5-Chloro (%)", "setting": "[2]; 16.7% DHP, 12 days", "result": 0.7, "unit": "%"},
      {"measurement": "2-Methyl (%) / 5-Chloro (%)", "setting": "[2]; 21.1% DHP, 0 days", "result": 4.2, "unit": "%"},
      {"measurement": "2-Methyl (%) / 5-Chloro (%)", "setting": "[2]; 21.1% DHP, 12 days", "result": 0.6, "unit": "%"},
      {"measurement": "% Remaining After X Days", "setting": "[5]; 0% norbornene, 0 days", "result": 4.9, "unit": "%"},
      {"measurement": "% Remaining After X Days", "setting": "[5]; 0% norbornene, 2 days", "result": 0.4, "unit": "%"},
      {"measurement": "% Remaining After X Days", "setting": "[5]; 0% norbornene, 30 days", "result": 0.7, "unit": "%"},
      {"measurement": "stabilization with norbornene (in words)", "setting": "[5]", "result": "completely stabilized"},
      {"measurement": "% Remaining After X Days", "setting": "[5]; 3% norbornene, 0 days", "result": 4.7, "unit": "%"},
      {"measurement": "% Remaining After X Days", "setting": "[5]; 3% norbornene, 2 days", "result": 4.4, "unit": "%"},
      {"measurement": "% Remaining After X Days", "setting": "[5]; 3% norbornene, 30 days", "result": 3.9, "unit": "%"},
      {"measurement": "% Remaining After X Days", "setting": "[5]; 6.3% norbornene, 0 days", "result": 4.5, "unit": "%"},
      {"measurement": "% Remaining After X Days", "setting": "[5]; 6.3% norbornene, 2 days", "result": 4.3, "unit": "%"},
      {"measurement": "% Remaining After X Days", "setting": "[5]; 6.3% norbornene, 30 days", "result": 4.0, "unit": "%"},
      {"measurement": "% Remaining After X Days", "setting": "[5]; 11.8% norbornene, 0 days", "result": 4.2, "unit": "%"},
      {"measurement": "% Remaining After X Days", "setting": "[5]; 11.8% norbornene, 2 days", "result": 4.0, "unit": "%"},
      {"measurement": "% Remaining After X Days", "setting": "[5]; 11.8% norbornene, 30 days", "result": 3.9, "unit": "%"},
      {"measurement": "% Remaining After X Days", "setting": "[5]; 16.7% norbornene, 0 days", "result": 4.0, "unit": "%"},
      {"measurement": "% Remaining After X Days", "setting": "[5]; 16.7% norbornene, 2 days", "result": 3.9, "unit": "%"},
      {"measurement": "% Remaining After X Days", "setting": "[5]; 16.7% norbornene, 30 days", "result": 3.7, "unit": "%"},
      {"measurement": "% Remaining After X Days", "setting": "[5]; 21.0% norbornene, 0 days", "result": 3.9, "unit": "%"},
      {"measurement": "% Remaining After X Days", "setting": "[5]; 21.0% norbornene, 2 days", "result": 3.8, "unit": "%"},
      {"measurement": "% Remaining After X Days", "setting": "[5]; 21.0% norbornene, 30 days", "result": 3.7, "unit": "%"},
      {"measurement": "2-Methyl (%) / 5-Chloro (%)", "setting": "[1]; 0% norbornene, 0 days", "result": 1.7, "unit": "%"},
      {"measurement": "2-Methyl (%) / 5-Chloro (%)", "setting": "[1]; 0% norbornene, 7 days", "result": 0.22, "unit": "%"},
      {"measurement": "2-Methyl (%) / 5-Chloro (%)", "setting": "[1]; 1.2% norbornene, 0 days", "result": 2.3, "unit": "%"},
      {"measurement": "2-Methyl (%) / 5-Chloro (%)", "setting": "[1]; 1.2% norbornene, 7 days", "result": 0.14, "unit": "%"},
      {"measurement": "2-Methyl (%) / 5-Chloro (%)", "setting": "[1]; 2.3% norbornene, 0 days", "result": 2.3, "unit": "%"},
      {"measurement": "2-Methyl (%) / 5-Chloro (%)", "setting": "[1]; 2.3% norbornene, 7 days", "result": 0.08, "unit": "%"},
      {"measurement": "2-Methyl (%) / 5-Chloro (%)", "setting": "[1]; 4.2% norbornene, 0 days", "result": 2.2, "unit": "%"},
      {"measurement": "2-Methyl (%) / 5-Chloro (%)", "setting": "[1]; 4.2% norbornene, 7 days", "result": 0.10, "unit": "%"},
      {"measurement": "2-Methyl (%) / 5-Chloro (%)", "setting": "[1]; 8.1% norbornene, 0 days", "result": 2.2, "unit": "%"},
      {"measurement": "2-Methyl (%) / 5-Chloro (%)", "setting": "[1]; 8.1% norbornene, 7 days", "result": 0.10, "unit": "%"},
      {"measurement": "2-Methyl (%) / 5-Chloro (%)", "setting": "[1]; 14.1% norbornene, 0 days", "result": 2.0, "unit": "%"},
      {"measurement": "2-Methyl (%) / 5-Chloro (%)", "setting": "[1]; 14.1% norbornene, 7 days", "result": 0.97, "unit": "%"},
      {"measurement": "2-Methyl (%) / 5-Chloro (%)", "setting": "[1]; 14.1% norbornene, 21 days", "result": 0.1, "unit": "%"}
    ]}
  ]
}
